Results from PubChem BioAssay (NCI).
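96-well plates; 48 h exposure; 5 concentrations. Endpoints by linear interpolation between flanking doses. Not reached: highest tested concentration assigned. At the TGI there is no net growth.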

How the values were obtained:
Test in all cases: NCI tumour cell line growth inhibition, 48 h
SNB-19 CNS = system: SNB-19 CNS
K-562 leukemia = system: K-562 leukemia
KM12 colon = system: KM12 colon
SF-295 CNS = system: SF-295 CNS
LOX IMVI melanoma = system: LOX IMVI melanoma
SK-MEL-5 melanoma = system: SK-MEL-5 melanoma
UO-31 renal = system: UO-31 renal
SN12C renal = system: SN12C renal
DMS 273 small cell lung = system: DMS 273 small cell lung
OVCAR-5 ovarian = system: OVCAR-5 ovarian
SNB-78 CNS = system: SNB-78 CNS
A498 renal = system: A498 renal
UACC-62 melanoma = system: UACC-62 melanoma
OVCAR-3 ovarian = system: OVCAR-3 ovarian
HOP-62 NSCLC = system: HOP-62 NSCLC
NCI-H460 lung = system: NCI-H460 lung
SW-620 colon = system: SW-620 colon
MALME-3M melanoma = system: MALME-3M melanoma
SNB-75 CNS = system: SNB-75 CNS
HCT-15 colon = system: HCT-15 colon
IGROV1 ovarian = system: IGROV1 ovarian
OVCAR-4 ovarian = system: OVCAR-4 ovarian
SF-539 CNS = system: SF-539 CNS
A549 NSCLC = system: A549 NSCLC
HOP-18 NSCLC = system: HOP-18 NSCLC
NCI-H23 lung = system: NCI-H23 lung
DLD-1 colon = system: DLD-1 colon
SK-MEL-28 melanoma = system: SK-MEL-28 melanoma
HT29 colon = system: HT29 colon
RPMI-8226 leukemia = system: RPMI-8226 leukemia
MOLT-4 leukemia = system: MOLT-4 leukemia
NCI-H226 lung = system: NCI-H226 lung
SR leukemia = system: SR leukemia
HOP-92 NSCLC = system: HOP-92 NSCLC
SF-268 CNS = system: SF-268 CNS
EKVX NSCLC = system: EKVX NSCLC
KM20L2 colon = system: KM20L2 colon
M19-MEL melanoma = system: M19-MEL melanoma
HCT-116 colon = system: HCT-116 colon
LXFL 529 NSCLC = system: LXFL 529 NSCLC
HCC-2998 colon = system: HCC-2998 colon
UACC-257 melanoma = system: UACC-257 melanoma
M14 melanoma = system: M14 melanoma
OVCAR-8 ovarian = system: OVCAR-8 ovarian
SK-OV-3 ovarian = system: SK-OV-3 ovarian
ACHN renal = system: ACHN renal
CAKI-1 renal = system: CAKI-1 renal
TK-10 renal = system: TK-10 renal
786-0 renal = system: 786-0 renal
U251 CNS = system: U251 CNS
DMS 114 small cell lung = system: DMS 114 small cell lung
COLO 205 colon = system: COLO 205 colon
RXF 393 renal = system: RXF 393 renal

O=C(O)CCSC(=S)Nc1cccc(F)c1
TGI (SNB-19 CNS): > 100 µM | TGI (K-562 leukemia): > 100 µM | TGI (KM12 colon): > 100 µM | TGI (SF-295 CNS): > 100 µM | TGI (LOX IMVI melanoma): 42.6 µM | TGI (SK-MEL-5 melanoma): 43.5 µM | TGI (UO-31 renal): > 100 µM | TGI (SN12C renal): > 100 µM | TGI (DMS 273 small cell lung): > 100 µM | TGI (OVCAR-5 ovarian): > 100 µM | TGI (SNB-78 CNS): > 100 µM | TGI (A498 renal): 77.7 µM | TGI (UACC-62 melanoma): 29.5 µM | TGI (OVCAR-3 ovarian): > 100 µM | TGI (HOP-62 NSCLC): > 100 µM | TGI (NCI-H460 lung): > 100 µM | TGI (SW-620 colon): > 100 µM | TGI (MALME-3M melanoma): > 100 µM | TGI (SNB-75 CNS): > 100 µM | TGI (HCT-15 colon): > 100 µM | TGI (IGROV1 ovarian): 80.9 µM | TGI (OVCAR-4 ovarian): > 100 µM | TGI (SF-539 CNS): > 100 µM | TGI (A549 NSCLC): > 100 µM | TGI (HOP-18 NSCLC): > 100 µM | TGI (NCI-H23 lung): > 100 µM | TGI (DLD-1 colon): > 100 µM | TGI (SK-MEL-28 melanoma): 83.1 µM | TGI (HT29 colon): > 100 µM | TGI (RPMI-8226 leukemia): > 100 µM | TGI (MOLT-4 leukemia): > 100 µM | TGI (NCI-H226 lung): > 100 µM | TGI (SR leukemia): > 100 µM | TGI (HOP-92 NSCLC): 98.9 µM | TGI (SF-268 CNS): > 100 µM | TGI (EKVX NSCLC): 81.8 µM | TGI (KM20L2 colon): > 100 µM | TGI (M19-MEL melanoma): 88.8 µM | TGI (HCT-116 colon): > 100 µM | TGI (LXFL 529 NSCLC): > 100 µM | TGI (HCC-2998 colon): > 100 µM | TGI (UACC-257 melanoma): 53.2 µM | TGI (M14 melanoma): > 100 µM | TGI (OVCAR-8 ovarian): > 100 µM | TGI (SK-OV-3 ovarian): > 100 µM | TGI (ACHN renal): 83.3 µM | TGI (CAKI-1 renal): > 100 µM | TGI (TK-10 renal): > 100 µM | TGI (786-0 renal): > 100 µM | TGI (U251 CNS): > 100 µM | TGI (DMS 114 small cell lung): 51.8 µM | TGI (COLO 205 colon): > 100 µM | TGI (RXF 393 renal): 99.2 µM
